Experimental findings from ChEMBL document CHEMBL4422624, “A novel class of anthraquinone-based HDAC6 inhibitors” (Eur J Med Chem, 2019) are described below.

Assay [1] concerns the target T1, Histone deacetylase 1 (Homo sapiens, UniProt Q13547). Nature of the assay: Inhibition of human recombinant HDAC1 using fluorogenic HDAC substrate-3 by fluorescence assay.
Another assay concerns the target Histone deacetylase 2 (Homo sapiens, UniProt Q92769). Description: Inhibition of HDAC2 (unknown origin) using fluorogenic HDAC substrate-3 by fluorescence assay.
Another assay deals with Histone deacetylase 3 (Homo sapiens, UniProt O15379). Nature of the assay: Inhibition of human recombinant HDAC3 using fluorogenic HDAC substrate-3 by fluorescence assay.
Chain of Histone deacetylase 3 (O15379 whole entry): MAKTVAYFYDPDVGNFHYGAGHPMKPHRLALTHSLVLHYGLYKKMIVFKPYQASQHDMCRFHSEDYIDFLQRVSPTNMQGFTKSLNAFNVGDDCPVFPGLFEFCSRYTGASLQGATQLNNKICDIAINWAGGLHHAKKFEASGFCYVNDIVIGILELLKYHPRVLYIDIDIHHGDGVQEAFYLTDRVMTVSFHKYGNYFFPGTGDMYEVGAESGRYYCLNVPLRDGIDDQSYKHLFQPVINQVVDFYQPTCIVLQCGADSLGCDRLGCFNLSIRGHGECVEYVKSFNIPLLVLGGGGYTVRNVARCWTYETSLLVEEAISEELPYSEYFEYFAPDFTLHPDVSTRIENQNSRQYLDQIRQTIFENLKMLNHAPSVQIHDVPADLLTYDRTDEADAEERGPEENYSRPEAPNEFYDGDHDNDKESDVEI
A further assay has as its target T2, Histone deacetylase 8 (Homo sapiens, UniProt Q9BY41).
T2 sequence (Q9BY41 whole entry): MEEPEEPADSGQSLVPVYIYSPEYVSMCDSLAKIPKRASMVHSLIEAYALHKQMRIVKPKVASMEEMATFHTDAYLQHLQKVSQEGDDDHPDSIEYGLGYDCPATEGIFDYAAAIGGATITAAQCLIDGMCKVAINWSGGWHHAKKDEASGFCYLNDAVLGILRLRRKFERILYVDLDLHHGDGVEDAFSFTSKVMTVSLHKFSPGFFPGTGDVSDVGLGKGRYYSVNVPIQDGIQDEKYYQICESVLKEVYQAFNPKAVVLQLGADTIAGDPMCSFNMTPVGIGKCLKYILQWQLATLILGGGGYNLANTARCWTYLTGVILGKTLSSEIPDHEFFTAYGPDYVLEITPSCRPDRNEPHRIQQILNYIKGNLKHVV
Description: Inhibition of human recombinant HDAC8 using fluorogenic HDAC substrate class 2A by fluorescence assay.

A further assay deals with Histone deacetylase 4 (Homo sapiens, UniProt P56524). Description: Inhibition of human recombinant HDAC4 using fluorogenic HDAC substrate class 2A by fluorescence assay.
Chain of Histone deacetylase 4 (P56524 whole entry): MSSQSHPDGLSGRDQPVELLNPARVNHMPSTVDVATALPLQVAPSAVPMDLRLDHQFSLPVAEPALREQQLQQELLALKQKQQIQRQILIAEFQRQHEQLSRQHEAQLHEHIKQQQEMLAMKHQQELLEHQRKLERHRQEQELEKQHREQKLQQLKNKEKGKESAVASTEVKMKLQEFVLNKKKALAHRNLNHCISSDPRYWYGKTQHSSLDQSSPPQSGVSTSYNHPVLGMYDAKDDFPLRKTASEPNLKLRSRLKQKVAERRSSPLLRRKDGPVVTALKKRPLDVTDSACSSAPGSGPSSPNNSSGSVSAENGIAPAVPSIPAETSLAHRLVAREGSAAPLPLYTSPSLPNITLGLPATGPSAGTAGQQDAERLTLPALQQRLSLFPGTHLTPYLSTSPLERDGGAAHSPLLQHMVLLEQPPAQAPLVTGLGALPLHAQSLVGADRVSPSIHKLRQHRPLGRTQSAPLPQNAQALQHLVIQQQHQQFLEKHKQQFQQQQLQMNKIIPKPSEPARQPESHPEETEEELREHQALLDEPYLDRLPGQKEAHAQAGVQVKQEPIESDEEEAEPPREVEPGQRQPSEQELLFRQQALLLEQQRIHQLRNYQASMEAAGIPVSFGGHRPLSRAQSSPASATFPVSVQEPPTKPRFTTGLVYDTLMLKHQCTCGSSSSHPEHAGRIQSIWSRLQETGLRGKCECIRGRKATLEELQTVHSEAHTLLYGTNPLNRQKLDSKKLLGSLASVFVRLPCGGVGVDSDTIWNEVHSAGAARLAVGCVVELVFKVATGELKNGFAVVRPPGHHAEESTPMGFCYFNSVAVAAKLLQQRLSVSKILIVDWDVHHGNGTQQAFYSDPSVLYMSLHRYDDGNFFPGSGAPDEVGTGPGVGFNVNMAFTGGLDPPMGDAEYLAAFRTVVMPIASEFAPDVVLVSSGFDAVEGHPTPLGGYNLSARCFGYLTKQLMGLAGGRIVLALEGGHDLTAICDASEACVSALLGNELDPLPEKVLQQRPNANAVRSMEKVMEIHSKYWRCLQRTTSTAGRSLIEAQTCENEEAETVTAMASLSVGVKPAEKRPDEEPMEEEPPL
The target in a further assay is Histone deacetylase 5 (Homo sapiens, UniProt Q9UQL6). Description: Inhibition of human recombinant HDAC5 using fluorogenic HDAC substrate class 2A by fluorescence assay.
Chain of Histone deacetylase 5 (Q9UQL6 whole entry): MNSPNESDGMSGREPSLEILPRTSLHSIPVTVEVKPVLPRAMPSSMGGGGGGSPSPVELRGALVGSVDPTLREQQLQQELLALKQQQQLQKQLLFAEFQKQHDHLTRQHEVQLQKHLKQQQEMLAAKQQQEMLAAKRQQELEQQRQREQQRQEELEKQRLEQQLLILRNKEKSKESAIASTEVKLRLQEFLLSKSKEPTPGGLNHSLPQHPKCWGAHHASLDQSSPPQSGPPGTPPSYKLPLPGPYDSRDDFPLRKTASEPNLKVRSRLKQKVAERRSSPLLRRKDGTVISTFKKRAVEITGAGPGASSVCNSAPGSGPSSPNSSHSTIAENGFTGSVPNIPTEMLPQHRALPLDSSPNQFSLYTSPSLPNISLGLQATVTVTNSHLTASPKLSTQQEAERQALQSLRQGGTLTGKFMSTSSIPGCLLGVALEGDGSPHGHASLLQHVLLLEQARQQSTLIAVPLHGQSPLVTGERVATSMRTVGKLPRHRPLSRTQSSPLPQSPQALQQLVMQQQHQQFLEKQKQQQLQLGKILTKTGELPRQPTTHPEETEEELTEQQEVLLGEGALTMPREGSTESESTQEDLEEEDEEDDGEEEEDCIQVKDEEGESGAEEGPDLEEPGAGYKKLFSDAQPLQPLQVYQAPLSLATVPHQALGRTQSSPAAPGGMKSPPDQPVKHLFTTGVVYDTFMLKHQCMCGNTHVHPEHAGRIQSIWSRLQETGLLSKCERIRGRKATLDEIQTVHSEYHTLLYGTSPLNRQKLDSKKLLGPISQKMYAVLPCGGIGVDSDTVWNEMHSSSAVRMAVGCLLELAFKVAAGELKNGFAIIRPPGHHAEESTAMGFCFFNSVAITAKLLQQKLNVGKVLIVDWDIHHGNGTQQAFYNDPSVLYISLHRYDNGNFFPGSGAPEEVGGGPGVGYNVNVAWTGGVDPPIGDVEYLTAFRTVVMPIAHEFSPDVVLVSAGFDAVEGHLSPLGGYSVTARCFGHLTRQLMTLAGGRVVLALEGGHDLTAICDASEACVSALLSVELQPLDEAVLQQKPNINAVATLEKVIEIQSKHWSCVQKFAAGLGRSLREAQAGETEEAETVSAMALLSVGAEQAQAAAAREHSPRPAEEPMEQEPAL
The target of the next assay is Histone deacetylase 9 (Homo sapiens, UniProt Q9UKV0). Nature of the assay: Inhibition of human recombinant HDAC9 using fluorogenic HDAC substrate class 2A by fluorescence assay.
Chain of Histone deacetylase 9 (Q9UKV0 whole entry): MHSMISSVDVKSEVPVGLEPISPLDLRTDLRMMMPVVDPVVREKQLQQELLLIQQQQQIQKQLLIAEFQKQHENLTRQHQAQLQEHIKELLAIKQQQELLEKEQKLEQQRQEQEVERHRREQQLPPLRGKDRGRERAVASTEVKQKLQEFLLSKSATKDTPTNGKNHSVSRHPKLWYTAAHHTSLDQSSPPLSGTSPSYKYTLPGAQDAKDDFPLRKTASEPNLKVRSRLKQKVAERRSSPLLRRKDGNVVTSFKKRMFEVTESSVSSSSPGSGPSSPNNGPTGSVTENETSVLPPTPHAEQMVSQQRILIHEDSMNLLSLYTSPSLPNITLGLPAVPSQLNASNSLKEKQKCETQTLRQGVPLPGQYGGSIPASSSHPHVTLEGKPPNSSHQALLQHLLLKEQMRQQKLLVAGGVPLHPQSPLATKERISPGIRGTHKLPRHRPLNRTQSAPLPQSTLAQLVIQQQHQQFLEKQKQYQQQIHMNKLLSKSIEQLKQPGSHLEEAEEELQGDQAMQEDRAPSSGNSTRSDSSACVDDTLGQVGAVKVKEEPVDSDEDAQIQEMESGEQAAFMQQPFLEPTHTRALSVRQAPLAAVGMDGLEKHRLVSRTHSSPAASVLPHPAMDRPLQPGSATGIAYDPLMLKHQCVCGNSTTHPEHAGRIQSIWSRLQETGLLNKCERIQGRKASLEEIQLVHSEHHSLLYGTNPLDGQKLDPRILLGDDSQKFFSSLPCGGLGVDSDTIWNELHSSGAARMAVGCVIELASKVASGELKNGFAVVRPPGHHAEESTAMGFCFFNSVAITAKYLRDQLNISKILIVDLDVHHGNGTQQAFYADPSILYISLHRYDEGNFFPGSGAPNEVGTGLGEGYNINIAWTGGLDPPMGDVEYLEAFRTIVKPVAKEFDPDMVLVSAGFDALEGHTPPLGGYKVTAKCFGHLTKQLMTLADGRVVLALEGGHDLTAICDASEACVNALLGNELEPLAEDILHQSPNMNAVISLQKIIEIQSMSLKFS
Assay [2] deals with T3, Protein deacetylase HDAC6 (Homo sapiens, UniProt Q9UBN7).
T3 sequence (Q9UBN7 whole entry): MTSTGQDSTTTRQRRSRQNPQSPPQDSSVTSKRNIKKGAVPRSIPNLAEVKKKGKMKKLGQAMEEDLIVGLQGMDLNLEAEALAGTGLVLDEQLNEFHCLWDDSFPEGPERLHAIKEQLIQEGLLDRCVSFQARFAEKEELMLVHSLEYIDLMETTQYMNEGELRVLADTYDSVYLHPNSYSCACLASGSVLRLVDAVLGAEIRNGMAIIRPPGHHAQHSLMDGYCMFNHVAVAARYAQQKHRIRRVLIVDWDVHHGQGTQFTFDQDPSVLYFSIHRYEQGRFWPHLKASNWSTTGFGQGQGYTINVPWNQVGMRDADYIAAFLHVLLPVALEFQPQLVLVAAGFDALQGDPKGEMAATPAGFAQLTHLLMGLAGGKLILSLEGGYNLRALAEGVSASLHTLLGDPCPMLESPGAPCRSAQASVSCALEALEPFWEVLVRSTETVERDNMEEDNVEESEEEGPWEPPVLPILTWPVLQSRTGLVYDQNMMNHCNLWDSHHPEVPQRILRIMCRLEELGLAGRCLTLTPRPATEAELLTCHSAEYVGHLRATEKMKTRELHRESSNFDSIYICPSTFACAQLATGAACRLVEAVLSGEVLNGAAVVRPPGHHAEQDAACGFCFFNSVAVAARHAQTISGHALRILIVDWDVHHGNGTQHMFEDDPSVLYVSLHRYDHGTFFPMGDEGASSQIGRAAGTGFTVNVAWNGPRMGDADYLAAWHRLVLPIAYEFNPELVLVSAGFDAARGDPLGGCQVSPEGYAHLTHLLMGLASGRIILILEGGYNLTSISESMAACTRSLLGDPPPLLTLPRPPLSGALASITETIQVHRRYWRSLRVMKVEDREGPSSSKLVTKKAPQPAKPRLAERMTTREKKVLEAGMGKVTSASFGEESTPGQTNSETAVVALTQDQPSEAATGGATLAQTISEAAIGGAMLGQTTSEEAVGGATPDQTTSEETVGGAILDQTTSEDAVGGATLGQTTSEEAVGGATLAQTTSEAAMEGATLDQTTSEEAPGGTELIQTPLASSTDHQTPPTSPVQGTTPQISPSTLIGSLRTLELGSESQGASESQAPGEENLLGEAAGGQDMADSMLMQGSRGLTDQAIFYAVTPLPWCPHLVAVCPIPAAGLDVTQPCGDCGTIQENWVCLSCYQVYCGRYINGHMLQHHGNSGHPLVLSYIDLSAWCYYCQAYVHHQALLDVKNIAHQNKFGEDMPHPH
Description: Inhibition of human recombinant HDAC6 using fluorogenic HDAC substrate-3 by fluorescence assay.

The target in assay [3] is T4, Polyamine deacetylase HDAC10 (Homo sapiens, UniProt Q969S8).
T4 sequence (Q969S8 whole entry): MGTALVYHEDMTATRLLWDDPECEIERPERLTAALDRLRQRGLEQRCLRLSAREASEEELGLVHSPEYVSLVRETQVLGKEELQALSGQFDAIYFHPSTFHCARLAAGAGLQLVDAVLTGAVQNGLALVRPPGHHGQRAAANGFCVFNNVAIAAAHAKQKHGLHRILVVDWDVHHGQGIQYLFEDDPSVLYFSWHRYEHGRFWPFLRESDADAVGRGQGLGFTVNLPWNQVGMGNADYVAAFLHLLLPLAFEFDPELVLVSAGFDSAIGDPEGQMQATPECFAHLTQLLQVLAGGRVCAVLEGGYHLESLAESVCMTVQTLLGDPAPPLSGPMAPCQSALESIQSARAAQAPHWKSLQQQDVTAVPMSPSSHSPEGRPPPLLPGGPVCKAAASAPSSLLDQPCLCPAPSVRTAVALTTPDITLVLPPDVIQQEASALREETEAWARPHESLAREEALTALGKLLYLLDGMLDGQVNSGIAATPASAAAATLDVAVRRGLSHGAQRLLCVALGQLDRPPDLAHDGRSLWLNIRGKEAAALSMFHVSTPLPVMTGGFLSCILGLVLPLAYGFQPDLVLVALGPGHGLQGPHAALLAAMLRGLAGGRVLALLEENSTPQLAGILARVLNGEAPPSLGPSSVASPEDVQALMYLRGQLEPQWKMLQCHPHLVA
Nature of the assay: Inhibition of HDAC10 (unknown origin) by fluorescence assay.

In a further assay the target is T5, Histone deacetylase 11 (Homo sapiens, UniProt Q96DB2).
T5 sequence (Q96DB2 whole entry): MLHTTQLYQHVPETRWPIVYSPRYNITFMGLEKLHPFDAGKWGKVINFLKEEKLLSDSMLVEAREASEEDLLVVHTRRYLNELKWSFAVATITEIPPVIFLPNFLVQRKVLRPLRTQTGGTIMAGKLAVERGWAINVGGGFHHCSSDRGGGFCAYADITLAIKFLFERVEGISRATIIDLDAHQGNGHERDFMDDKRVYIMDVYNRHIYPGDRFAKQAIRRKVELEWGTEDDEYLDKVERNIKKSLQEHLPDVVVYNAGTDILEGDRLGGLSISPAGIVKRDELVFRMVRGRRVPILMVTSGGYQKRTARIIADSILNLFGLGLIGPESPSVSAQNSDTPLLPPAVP
Nature of the assay: Inhibition of human recombinant HDAC11 using fluorogenic HDAC substrate class 2A by fluorescence assay.

The subject of a further assay is SH-SY5Y. Nature of the assay: Cytotoxicity against human SH-SY5Y cells assessed as reduction in cell viability after 3 days by MTS assay. The format is functional. The conditions noted are these: for GI50: 72 h.
Assay [4] addresses T6, Protein deacetylase HDAC6 (Homo sapiens) (UniProt Q9UBN7).
T6 sequence (whole entry): T3 sequence (Q9UBN7 whole entry)
Nature of the assay: Inhibition of HDAC6 in human SH-SY5Y cells assessed as increase in alpha-tubulin acetylation after 24 hrs by Western blot analysis. The format is cell-based.

Assay [5] has as its target T6, Protein deacetylase HDAC6 (Homo sapiens). Description: Inhibition of HDAC6 in human SH-SY5Y cells assessed as increase in alpha-tubulin acetylation at 0.5 uM after 24 hrs by Western blot analysis. It counts as cell-based.
Assay [6] addresses T1, Histone deacetylase 1. Description: Inhibition of HDAC1 in human SH-SY5Y cells assessed as increase in histone H3 acetylation up to 20 uM after 24 hrs by Western blot analysis. The format is cell-based.
The target of assay [7] is T6, Protein deacetylase HDAC6 (Homo sapiens). Nature of the assay: Inhibition of HDAC6 in human H1975 cells assessed as alpha-tubulin acetylation up to 10 uM after 24 hrs by Hoechst staining-based fluorescence microscopic analysis. The format is cell-based.
For assay [8] the target is unchanged. Description: Inhibition of HDAC6 in human H1975 cells assessed as microtubule polymerization up to 10 uM after 24 hrs by Hoechst staining-based fluorescence microscopic analysis. It counts as cell-based.
For a further assay, the target named is T7, Histone deacetylase 7 (Homo sapiens, UniProt Q8WUI4).
T7 sequence (Q8WUI4 whole entry): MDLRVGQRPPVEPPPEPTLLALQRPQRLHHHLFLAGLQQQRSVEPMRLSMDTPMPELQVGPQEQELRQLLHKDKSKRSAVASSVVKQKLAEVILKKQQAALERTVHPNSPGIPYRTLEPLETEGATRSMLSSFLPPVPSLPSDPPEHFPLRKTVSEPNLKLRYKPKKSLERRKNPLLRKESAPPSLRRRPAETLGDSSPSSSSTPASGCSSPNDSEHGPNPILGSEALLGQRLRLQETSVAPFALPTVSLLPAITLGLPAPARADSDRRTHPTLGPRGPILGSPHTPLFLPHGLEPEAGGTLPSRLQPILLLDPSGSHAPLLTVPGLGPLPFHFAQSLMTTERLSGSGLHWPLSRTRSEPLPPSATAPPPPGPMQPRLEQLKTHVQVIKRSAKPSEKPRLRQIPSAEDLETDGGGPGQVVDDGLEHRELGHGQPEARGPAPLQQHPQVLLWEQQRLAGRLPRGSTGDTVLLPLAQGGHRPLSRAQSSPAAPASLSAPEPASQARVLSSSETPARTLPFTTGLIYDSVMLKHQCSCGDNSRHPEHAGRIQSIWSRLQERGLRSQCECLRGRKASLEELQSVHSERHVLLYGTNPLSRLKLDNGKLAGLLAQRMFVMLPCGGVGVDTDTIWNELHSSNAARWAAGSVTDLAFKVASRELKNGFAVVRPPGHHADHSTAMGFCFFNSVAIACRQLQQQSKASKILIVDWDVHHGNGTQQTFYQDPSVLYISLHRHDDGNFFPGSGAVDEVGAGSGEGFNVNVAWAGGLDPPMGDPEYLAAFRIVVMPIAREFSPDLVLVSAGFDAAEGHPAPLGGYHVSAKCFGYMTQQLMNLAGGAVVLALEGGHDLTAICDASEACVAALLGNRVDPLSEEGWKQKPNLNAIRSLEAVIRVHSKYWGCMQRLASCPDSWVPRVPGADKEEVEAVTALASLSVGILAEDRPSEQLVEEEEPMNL
Nature of the assay: Inhibition of human recombinant HDAC7 using fluorogenic HDAC substrate class 2A by fluorescence assay.

Active and inactive are the calls of the source. The calls are words filed in the database; no cut-off is given here. Some results are limits rather than exact numbers.

T1 sequence (Q13547 whole entry): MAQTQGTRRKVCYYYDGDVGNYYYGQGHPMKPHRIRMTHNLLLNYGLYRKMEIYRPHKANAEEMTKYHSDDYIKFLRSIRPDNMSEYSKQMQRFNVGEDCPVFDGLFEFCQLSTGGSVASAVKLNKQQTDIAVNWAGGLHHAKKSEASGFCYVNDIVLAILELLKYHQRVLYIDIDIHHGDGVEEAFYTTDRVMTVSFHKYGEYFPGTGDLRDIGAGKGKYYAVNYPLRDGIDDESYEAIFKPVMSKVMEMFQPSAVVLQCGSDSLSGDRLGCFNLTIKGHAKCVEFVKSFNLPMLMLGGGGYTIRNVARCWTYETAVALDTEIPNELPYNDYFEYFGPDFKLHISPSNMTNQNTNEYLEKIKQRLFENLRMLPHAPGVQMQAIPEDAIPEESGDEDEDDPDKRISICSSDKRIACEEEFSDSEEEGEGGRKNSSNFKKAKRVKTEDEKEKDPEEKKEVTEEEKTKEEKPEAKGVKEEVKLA
Chain of Histone deacetylase 2 (Q92769 whole entry): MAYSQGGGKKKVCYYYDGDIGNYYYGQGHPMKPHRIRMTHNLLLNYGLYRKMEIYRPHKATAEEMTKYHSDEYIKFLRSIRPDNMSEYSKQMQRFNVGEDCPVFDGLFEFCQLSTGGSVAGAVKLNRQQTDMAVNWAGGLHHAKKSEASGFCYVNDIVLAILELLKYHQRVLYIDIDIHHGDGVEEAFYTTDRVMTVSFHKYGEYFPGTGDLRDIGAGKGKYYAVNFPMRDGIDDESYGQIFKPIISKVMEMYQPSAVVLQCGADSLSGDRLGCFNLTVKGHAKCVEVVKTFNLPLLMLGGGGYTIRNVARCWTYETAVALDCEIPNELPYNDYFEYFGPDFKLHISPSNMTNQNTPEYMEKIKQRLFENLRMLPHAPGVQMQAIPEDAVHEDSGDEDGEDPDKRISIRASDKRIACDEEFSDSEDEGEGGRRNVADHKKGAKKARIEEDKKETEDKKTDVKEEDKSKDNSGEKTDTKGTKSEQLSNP

For the compound `O=C(NO)c1ccc2c(c1)C(=O)c1ccccc1C2=O`, the IC50 at Histone deacetylase 1 [1] was found to be 0.91 µM; on Histone deacetylase 2, 4.62 µM; on Histone deacetylase 3, 3.95 µM; at Histone deacetylase 8 it was 0.599 µM; at Histone deacetylase 4, 5.61 µM; at Histone deacetylase 5, 1.36 µM. Moreover, the IC50 worked out at 7.78 µM on Histone deacetylase 9, 0.056 µM in assay [2], 5 µM in assay [3] and 80 µM at Histone deacetylase 11. In addition, in the assay on SH-SY5Y, the Activity entry is “Dose-dependent effect”. Besides, the GI50 in the assay on SH-SY5Y came out at 15.8 µM. In [4], the inhibition entry is “Dose-dependent effect”. Also, the inhibition entry in [5], in assay [7] and in assay [8] was “Active” each time. The inhibition entry at Histone deacetylase 1 [6] was “inactive”.
On to `O=C(/C=C/c1ccc2c(c1)C(=O)c1ccccc1C2=O)NO`, for which the IC50 is 3.07 µM at Histone deacetylase 1 [1]; 13.6 µM against Histone deacetylase 2; 1.97 µM on Histone deacetylase 3; above 100 µM on Histone deacetylase 8; 16.2 µM at Histone deacetylase 4; 8.59 µM on Histone deacetylase 5. The 50% inhibitory concentration (IC50) on Histone deacetylase 7 was above 100 µM; at Histone deacetylase 9, above 100 µM; in assay [2] it was 0.536 µM; in assay [3], 1.47 µM; on Histone deacetylase 11, above 100 µM. Further, the Activity result in the assay on SH-SY5Y is “Dose-dependent effect”. The 50% growth inhibitory concentration (GI50) with SH-SY5Y came out at 22.3 µM.
